Test results from patent US8298781B2, “Compositions and methods for characterizing and regulating olfactory sensation” (Duke University, priority 2007, dated 2012).
Positions count from the first letter of the chain named.

Columns and labels:
Type in all cases: cell-based
OR7D4 S84N = molecular target: T1, OR7D4 S84N (Homo sapiens, UniProt Q8NG98, S84N); assay: Luciferase assay dose response, OR7D4 S84N; conditions: exceeding the activity of RT variant at every concentration tested
T1 sequence (Q8NG98 1-312 S84N): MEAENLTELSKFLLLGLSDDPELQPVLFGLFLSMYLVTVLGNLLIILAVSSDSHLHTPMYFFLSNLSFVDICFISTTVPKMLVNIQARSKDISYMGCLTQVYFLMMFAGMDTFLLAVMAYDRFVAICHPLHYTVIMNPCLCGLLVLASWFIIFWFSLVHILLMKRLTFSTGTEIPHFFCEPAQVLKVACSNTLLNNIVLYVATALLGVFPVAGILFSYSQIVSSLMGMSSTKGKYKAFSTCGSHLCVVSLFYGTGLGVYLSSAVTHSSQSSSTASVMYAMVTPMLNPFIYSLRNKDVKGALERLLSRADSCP
Text: (§1) Heterologous expression of human odorant receptors. 423 human odorant receptors including 337 predicted functional receptors were cloned. Odorant receptors that contained the first 20 amino acid of human rhodopsin (see, e.g., Krautwurst, D., et al., Cell 95, 917-926 (1998); herein incorporated by reference in its entirety) in pCl (Promega) were expressed in the Hana3A cell line along with a short form of mRTP1, RTP1S, (M37 to the C-terminal end), which enhanced functional expression of the odorant receptors. For immunocytochemistry, cells were fixed, permeabilized and incubated with monoclonal anti-rhodopsin antibody, 4D2 (see, e.g., Laird, D. W., et al., Invest Opthalmol Vis Sci 29.419428 (1988); herein incorporated by reference in its entirety), followed by Cy3-conjugated donkey anti-mouse IgG (Jackson Immunologicals). […]
(§2) Luciferase assay and data analysis. […] Luminescence was measured using Wallac Victor 1420 (Perkin-Elmer). Normalized luciferase activity was calculated by the formula [luc(N)-luc(lowest)]/luc(highest)/RL (N) where luc(N)=luminescence of luciferase of a certain well; luc(lowest)=lowest luminescence of luciferase of a plate or a set of plates; luc(highest)=highest luminescence of luciferase of a plate or a set of plates; RL(N)=luminescence of Renilla luciferase of a certain well. Data was analyzed with Microsoft Excel and GraphPad Prism 4.

OR7D4 P79L = molecular target: T2, OR7D4 P79L (Homo sapiens, UniProt Q8NG98, P79L); assay: Luciferase assay dose response, OR7D4 P79L; conditions: all concentrations tested
T2 construct: expressed in transfected cells; host or cells: Hana3A (HEK293T-derived)
T2 sequence (Q8NG98 1-312 P79L): T1 sequence (Q8NG98 1-312 S84N) with P79L, N84S
Text: as §1, §2

OR7D4 WM = molecular target: T3, OR7D4 WM (Homo sapiens, UniProt Q8NG98, R88W/T133M); assay: Luciferase assay of odorant receptor activation in Hana3A cells, OR7D4 WM; conditions: variant R88W/T133M, relative to OR7D4 RT
T3 construct: expressed in transfected cells; host or cells: Hana3A (HEK293T-derived)
T3 sequence (Q8NG98 1-312 R88W/T133M): T1 sequence (Q8NG98 1-312 S84N) with N84S, R88W, T133M
Text: as §1, §2

OR7D4 RT = molecular target: T4, OR7D4 RT (Homo sapiens, UniProt Q8NG98); assay: Luciferase assay of odorant receptor activation in Hana3A cells, OR7D4 RT; set-up: dose or concentration left out as unconfirmed; conditions: for response of OR7D4 RT (normalized luciferase), ligand specificity panel: panel of 66 odors and 2 solvents at or 1,130,000 dilution
T4 construct: expressed in transfected cells; host or cells: Hana3A (HEK293T-derived)
T4 sequence (Q8NG98 1-312): T1 sequence (Q8NG98 1-312 S84N) with N84S
Text: as §1, with “Immunologicals). For FACS analysis, PE-conjugated donkey anti-mouse IgG (Jackson Immunologicals) was used. Western blot analysis was performed according to Mini-Protean 2 Cell (Bio-Rad) protocol. ECL (Amersham) was used for detecting proteins on membranes. After the initial exposure, the membrane was incubated with stripping buffer (25 mM Glycine-HCl [pH2], 1% SDS, 25 mM Glycine, 0.036N HCl, 1% SDS) and incubated with rabbit anti-GFP (Invitrogen). Luciferase assays were performed as described (see, e.g., Saito, H., et al., Cell 119:679-691 (2004); incorporated herein by reference in its entirety).” for “Immunologicals).”
as §2

| Compound | dose-response sensitivity of OR7D4 S84N in vitro (OR7D4 S84N) | dose-response function of OR7D4 P79L in vitro (OR7D4 P79L) | function of OR7D4 WM in vitro in the presence of the odor (OR7D4 WM) | response of OR7D4 RT (normalized luciferase), ligand specificity panel (OR7D4 RT) | response of OR7D4 in screen of human odorant receptor panel (OR7D4 RT; Hana3A cells, 337 human odorant receptors, stimulated with androstenone) |
| --- | --- | --- | --- | --- | --- |
| C[C@@]12C=CC[C@H]1[C@@H]1CCC3=CC(=O)CC[C@]3(C)[C@H]1CC2 [androstadienone, androsta-4,16-dien-3-one] | remarkable sensitivity | severely impaired function | severely impaired olfactory function | responded selectively |  |
| C[C@]12CCC(=O)C[C@@H]1CC[C@@H]1[C@@H]2CC[C@]2(C)C=CC[C@@H]12 [androstenone, 5α-androst-16-en-3-one] | remarkable sensitivity | severely impaired function | severely impaired olfactory function | responded selectively | robust responses |
